In patent US20230099344A1, “COMPOUNDS AND METHODS FOR THE TARGETED DEGRADATION OF IRAK-4” (Arvinas Operations, Inc., priority 2021, published 2023):

Tests used:
Format in all cases: cell-based
IL6 [1] = assay: LPS stimulated IL6 inhibition assay in PBMC; conditions: Homo sapiens, PBMC, 24 h, human PBMCs, LPS stimulation, compound overnight, IL6 by MSD after 24 hrs; for Dmax: read-out: LPS Stim IL6 inhibition Dmax; for IC50: read-out: LPS stim IL6 inhibition IC50
In short: (§1)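 Primary human PBMCs plated at 2.0×10^6 cells/mL are incubated with compound overnight. Stimulation follows using the donor's EC50 concentration of agonist. MSD detects secreted IL6/IL8 at 24 hrs.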

IL6 [2] = assay: R848 stimulated IL6 inhibition assay in PBMC; conditions: PBMC, human PBMCs, R848 stimulation, compound overnight, IL6 by MSD after 24 hrs; for Dmax: Homo sapiens, 24 h, read-out: R848 stim IL6 inhibition Dmax; for IC50: read-out: R848 stim IL6 inhibition IC50
In short: as §1

IRAK-4 = target: T1, IRAK-4 (Homo sapiens, UniProt Q9NWZ3); assay: IRAK-4 ELISA, PBMC degradation; design: endogenous in cells; host or cells: PBMC; conditions: treated overnight
T1 sequence (Q9NWZ3 1-460): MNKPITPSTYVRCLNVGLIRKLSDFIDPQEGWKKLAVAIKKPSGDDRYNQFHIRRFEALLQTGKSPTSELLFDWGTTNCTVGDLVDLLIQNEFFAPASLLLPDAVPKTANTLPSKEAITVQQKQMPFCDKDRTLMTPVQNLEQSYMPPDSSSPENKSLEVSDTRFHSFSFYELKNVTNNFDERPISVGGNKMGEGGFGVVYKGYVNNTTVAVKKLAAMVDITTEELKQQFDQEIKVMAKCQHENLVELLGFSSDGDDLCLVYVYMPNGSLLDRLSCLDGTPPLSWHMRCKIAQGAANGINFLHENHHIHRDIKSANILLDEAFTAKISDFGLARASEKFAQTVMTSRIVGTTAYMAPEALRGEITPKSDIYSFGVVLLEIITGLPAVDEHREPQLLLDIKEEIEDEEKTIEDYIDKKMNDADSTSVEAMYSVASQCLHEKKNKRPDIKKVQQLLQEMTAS
In short: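 ELISA quantification of cellular IRAK-4 after compound treatment overnight; PBMC were plated at 2×10^6/ml, OCI-Ly10 at 1×10^6/ml.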

SMILES	Dmax (IL6 [1]) [%]	IC50 (IL6 [1]) [µM]	Dmax (IL6 [2]) [%]	IC50 (IL6 [2]) [µM]	DC50 (IRAK-4) [µM]	Dmax (IRAK-4) [%]	PBMC DC90 (IRAK-4)
O=C1CCC(N2Cc3c(ccc(N4CCC(CN5CCC(n6cc7cc(NC(=O)c8cnn9cccnc89)c(N8CCN(CC(F)F)CC8)cc7n6)CC5)CC4)c3F)C2=O)C(=O)N1 (stereo not drawn) [Example 158]	80 to 90	< 0.01	≥ 90	< 0.01	< 0.001	≥ 90	A (A represents a DC90 value <10.0 nM)
O=C1CCC(N2C(=O)c3ccc(N4CCC(CN5CCC(N6Cc7cc(NC(=O)c8cnn9cccnc89)c(N8CCN(C9CC(F)(F)C9)CC8)cc7C6=O)CC5)CC4)cc3C2=O)C(=O)N1 (stereo not drawn) [Example 53]	< 70	0.05 to 0.1	70 to 80	0.01 to 0.05	0.001 to 0.005	≥ 90	B (B represents a DC90 value ≥10.0 nM and <25.0 nM)
CN(C1CN(c2ccc3c(c2F)CN(C2CCC(=O)NC2=O)C3=O)C1)[C@H]1CC[C@H](n2cc3cc(NC(=O)c4cnn5cccnc45)c(OCC4CC4)cc3n2)CC1 (stereo partly drawn) [Example 361]	80 to 90	< 0.01	≥ 90	< 0.01	< 0.001	≥ 90	A (A represents a DC90 value <10.0 nM)
O=C1CCC(NC(=O)c2ccc(N3CCC(CN4CCC(N5Cc6cc(NC(=O)c7cnn8cccnc78)c(OCC(F)F)cc6C5=O)CC4)CC3)cc2F)C(=O)N1 (stereo not drawn) [Example 305]	< 70	0.01 to 0.05	< 70	0.05 to 0.1	0.005 to 0.01	80 to 90	C (C represents a DC90 value ≥25.0 nM and <50 nM)
O=C1CCC(N2Cc3cc(N4CC(O[C@H]5CC[C@H](n6cc7cc(NC(=O)c8cnn9cccnc89)c(OCC8CC8)cc7n6)CC5)C4)ccc3C2=O)C(=O)N1 (stereo partly drawn) [Example 423, N-[6-(cyclopropylmethoxy)-2-[(1r,4r)-4-({1-[2-(2,6-dioxopiperidin-3-yl)-1-oxo-2,3-dihydro-1H-isoindol-5-yl]azetidin-3-yl}oxy)cyclohexyl]-2H-indazol-5-yl]pyrazolo[1,5-a]pyrimidine-3-carboxamide]	80 to 90	0.01 to 0.05	≥ 90	0.01 to 0.05	0.001 to 0.005	≥ 90	B (B represents a DC90 value ≥10.0 nM and <25.0 nM)
O=C1CCC(N2Cc3c(F)cc(N4CC(F)(CN5CCC(n6cc7cc(NC(=O)c8cnn9cccnc89)c(OCC8CC8)cc7n6)CC5)C4)cc3C2=O)C(=O)N1 (stereo not drawn) [Example 268, N-[6-(cyclopropylmethoxy)-2-[1-({1-[2-(2,6-dioxopiperidin-3-yl)-7-fluoro-3-oxo-2,3-dihydro-1H-isoindol-5-yl]-3-fluoroazetidin-3-yl}methyl)piperidin-4-yl]-2H-indazol-5-yl]pyrazolo[1,5-a]pyrimidine-3-carboxamide]	70 to 80	0.01 to 0.05	≥ 90	0.01 to 0.05	< 0.001	≥ 90	A (A represents a DC90 value <10.0 nM)
Cc1cnc2c(C(=O)Nc3cc4c(cc3OC(C)C)C(=O)N(C3CCN(CC5CCN(c6ccc7c(c6)C(=O)N(C6CCC(=O)NC6=O)C7=O)CC5)CC3)C4)cnn2c1 (stereo not drawn) [Example 56]	70 to 80	< 0.01	≥ 90	0.01 to 0.05	0.001 to 0.005	≥ 90	A (A represents a DC90 value <10.0 nM)
CN1CC(Oc2cc3c(cc2NC(=O)c2cnn4cccnc24)CN(C2CCN(CC4CN(c5ccc6c(c5)C(=O)N(C5CCC(=O)NC5=O)C6=O)C4)CC2)C3=O)C1 (stereo not drawn) [Example 44]	70 to 80	0.05 to 0.1	≥ 90	0.01 to 0.05	≥ 0.01	80 to 90	D (D represents a DC90 value ≥50 nM)
O=C1CCC(N2Cc3c(ccc(N4CCC(CN5CCC(N6Cc7cc(NC(=O)c8cnn9cccnc89)c(N8CCN(CC(F)F)CC8)cc7C6=O)CC5)CC4)c3F)C2=O)C(=O)N1 (stereo not drawn) [Example 51]	< 70	0.05 to 0.1	≥ 90	0.01 to 0.05	< 0.001	≥ 90	A (A represents a DC90 value <10.0 nM)
CC(C)Oc1cc2nn(C3CCN(CC4CN(c5ccc(F)c(C(=O)NC6CCC(=O)NC6=O)c5)C4)CC3)cc2cc1NC(=O)c1cnn2cccnc12 (stereo not drawn) [Example 307]	–	≥ 0.1	80 to 90	≥ 0.1	≥ 0.01	–	D (D represents a DC90 value ≥50 nM)
CC(C)Oc1cc2nn([C@H]3CC[C@H](OC4CN(c5ccc6c(c5)CN(C5CCC(=O)NC5=O)C6=O)C4)CC3)cc2cc1NC(=O)c1cnn2cccnc12 (stereo partly drawn) [Example 424]	< 70	< 0.01	80 to 90	< 0.01	0.001 to 0.005	80 to 90	B (B represents a DC90 value ≥10.0 nM and <25.0 nM)
O=C1CCC(N2Cc3cc(F)c(N4CC(F)(CN5CCC(n6cc7cc(NC(=O)c8cnn9cccnc89)c(OCC8CC8)cc7n6)CC5)C4)cc3C2=O)C(=O)N1 (stereo not drawn) [Example 269, N-[6-(cyclopropylmethoxy)-2-[1-({1-[2-(2,6-dioxopiperidin-3-yl)-6-fluoro-3-oxo-2,3-dihydro-1H-isoindol-5-yl]-3-fluoroazetidin-3-yl}methyl)piperidin-4-yl]-2H-indazol-5-yl]pyrazolo[1,5-a]pyrimidine-3-carboxamide]	80 to 90	0.01 to 0.05	≥ 90	0.01 to 0.05	0.001 to 0.005	80 to 90	A (A represents a DC90 value <10.0 nM)
CN(CC1CCN(c2ccc3c(c2)C(=O)N(C2CCC(=O)NC2=O)C3=O)CC1)[C@H]1CC[C@H](n2cc3cc(NC(=O)c4cnn5cccnc45)c(OCC(F)F)cc3n2)CC1 (stereo partly drawn) [Example 357]	≥ 90	< 0.01	≥ 90	< 0.01	< 0.001	70 to 80	A (A represents a DC90 value <10.0 nM)
O=C1CCC(N2C(=O)c3ccc(N4CC[C@@H](O[C@H]5CC[C@H](n6cc7cc(NC(=O)c8cnn9cccnc89)c(OCC8CC8)cc7n6)CC5)C4)cc3C2=O)C(=O)N1 (stereo partly drawn) [Example 426]	< 70	0.05 to 0.1	80 to 90	0.05 to 0.1	≥ 0.01	≥ 90	D (D represents a DC90 value ≥50 nM)
O=C1CC[C@H](N2C(=O)c3ccc(N4CC(F)(CN5CCC(n6cc7cc(NC(=O)c8cnn9cccnc89)c(OCC8CC8)cc7n6)CC5)C4)cc3C2=O)C(=O)N1 [Example 254]	< 70	0.05 to 0.1	≥ 90	0.01 to 0.05	0.001 to 0.005	≥ 90	A (A represents a DC90 value <10.0 nM)
CC(C)Oc1cc2c(cc1NC(=O)c1cnn3cccnc13)CN(C1CCN(C(C)(C)C3CN(c4ccc(F)c(C(=O)NC5CCC(=O)NC5=O)c4)C3)CC1)C2=O (stereo not drawn) [Example 311]	70 to 80	≥ 0.1	≥ 90	0.01 to 0.05	0.005 to 0.01	80 to 90	D (D represents a DC90 value ≥50 nM)
CN(C1CN(c2ccc(C(=O)NC3CCC(=O)NC3=O)c(F)c2)C1)[C@H]1CC[C@H](n2cc3cc(NC(=O)c4cnn5cccnc45)c(OCC4CC4)cc3n2)CC1 (stereo partly drawn) [Example 368]	70 to 80	0.01 to 0.05	≥ 90	0.01 to 0.05	0.001 to 0.005	≥ 90	A (A represents a DC90 value <10.0 nM)
O=C1CCC(N2C(=O)c3ccc(N4CCC(CN5CCC(n6cc7cc(NC(=O)c8cnn9cccnc89)c(N8CCC(N9CCC9)CC8)cc7n6)CC5)CC4)cc3C2=O)C(=O)N1 (stereo not drawn) [Example 150]	80 to 90	0.05 to 0.1	≥ 90	0.01 to 0.05	0.001 to 0.005	80 to 90	C (C represents a DC90 value ≥25.0 nM and <50 nM)
CC(C)Oc1cc2c(cc1NC(=O)c1cnn3cccnc13)CN([C@H]1CC[C@H](CN3CCC(c4ccc5c(c4)C(=O)N(C4CCC(=O)NC4=O)C5=O)CC3)CC1)C2=O (stereo partly drawn) [Example 432]	70 to 80	0.01 to 0.05	≥ 90	0.01 to 0.05	0.001 to 0.005	≥ 90	A (A represents a DC90 value <10.0 nM)
O=C1CCC(N2C(=O)c3ccc(N4CCC(O)(CN5CCC(n6cc7cc(NC(=O)c8cnn9cccnc89)c(OCC8CC8)cc7n6)CC5)CC4)cc3C2=O)C(=O)N1 (stereo not drawn) [Example 257]	70 to 80	0.01 to 0.05	≥ 90	0.01 to 0.05	0.001 to 0.005	≥ 90	A (A represents a DC90 value <10.0 nM)
